Experimental data reported in patent publication US6720142B1, “Method of determining evolutionary potential of mutant resistance genes and use thereof to screen for drug efficacy” (priority 1999, dated 2004).
≈ marks a conversion by molar mass, not a printed value.

Tests used:
[1] = tested on: host cells carrying pAmpC0-305 (AmpC T121 to S); assay: MIC test, single-mutation plasmid pAmpC0-305; format: cell-based, E. coli; conditions: for MIC: pAmpC0-305, A663 to G, T121 to S
Experimental: (§1) Basically, a MIC determination is carried out by preparing serial dilutions of drugs in a micro-well plate and measuring host cell growth within those wells. The MIC for a particular set of host cells containing a mutant resistance gene is determined by examining the wells to locate the lowest concentration of drug which inhibited cell growth. This is capable of discriminating generally between those host cells containing mutant resistance genes conferring different degrees of resistance against the particular drug.
(§2) Serial dilutions were prepared by first determining the volume of drug solution to be added to the first well in each row to achieve the desired concentration of drug in a total volume of 1 ml. The MIC was determined for the following drugs: ampicillin, pipericillin, temocillin, cephalothin, cefuroxime, cefotaxime, ceftazidime, cefepime, imipenem, meropenem, and aztreonam. To the first well in each row 1 ml of the diluted cell suspension was added, and to all remaining wells per row 0.5 ml of the diluted cell suspension was added. For each row, the predetermined volume of a drug solution was added to the first well per row, mixed well, and then 0.5 ml of the mixed solution was transferred to the next well, and so on until the serial dilutions were completed. From the last well in each row, 0.5 ml was removed so that all well contained 0.5 ml of the drug-containing culture. Plates were sealed with BreatheEasy film (Diversified Biotech, Boston, Mass.) and maintained overnight at 37° C. with shaking. […] The MICs, in μg/ml, for each of the above-identified drugs was as follows: ampicillin, >1024; pipericillin, >1024; temocillin, 32: cephalothin, 1024; cefuroxime, 512; cefotaxime, 8; ceftazidime, 64; cefepime, 1; imipenem, 0.25; meropenem, 0.03125; and aztreonam, 16.
(§3) To determine the phenotypic effects of each of the amino acid substitutions, the A907C, A587G, A663G, T869G, and A884G mutations are being individually introduced into pAmpC0 by site-directed mutagenesis. It is expected that the A907C mutation will result in MICs that are identical to pAmpC13A. The A587G, A663G, and As84G mutations will also be introduced individually into AmpC13 to determine whether the combination of any of those mutations with A907C will result in increased resistance levels.
(§4) MICs of three of the plasmids containing the wildtype AmpC gene into which the above mutations have been introduced have been determined, as shown in Table 2 below.

[2] = tested on: E. coli JM109 carrying pAmpC0 (wildtype E. coli K12 ampC gene); assay: MIC test, plasmid pAmpC0 (wildtype ampC gene); format: cell-based; conditions: for MIC: pAmpC0 (wildtype ampC); for resistance conferred by plasmid pAmpC0: wildtype ampC gene, Table 1 boxed cells
Experimental: as §1
All experiments utilizing ampicillin resistance will be directed toward the cloned and regulated ampC gene (or mutant ampC gene) in such a way that the regulation, i.e., the amount of enzyme produced per cell, will be held constant throughout the experiments and all of the “improvement” in resistance will come from improvement in β-lactamase activity.
as §2, with “16. […]” for “16.”

[3] = tested on: E. coli DH5α-E containing multiply mutated ampC; assay: MIC of population of E. coli host cells containing multiply mutated (DNA-shuffled) ampC; format: cell-based; conditions: Escherichia coli; lowest drug concentration that completely inhibited growth; overnight at 37° C., MH-I broth, 48-well plates, shuffled ampC library in DH5α-E
Experimental: E. coli host cells prepared according to Example 4 were diluted into 100 ml MuellerHinton-IPTG (MH-T) broth. Duplicate samples of 10^0, 10^1, and 10^2 dilutions were spread onto L(tet) plates to estimate total transformants, and duplicate 10^0 and 10^1 samples were spread onto MH-I(ampicillin) plates to estimate the number of Amp^R transformants. 10 mg ampicillin was added to each culture using 1 ml of a 10 mg/ml ampicillin solution. The culture was allowed to stand overnight at 37° C. without shaking.
Next, the minimum inhibitory concentration of a number of drug was determined. An estimate of viable cells was calculated by assuming that an A600 of 1.0 is equivalent to 1.9×10^8 per ml for DH5α-E cells. A sample of the overnight culture was diluted into 70 ml of MH-I so that the number of cells per ml 10^5 per ml. The resulting suspension was used to determine MIC in 48-well microtiter plates.
as §2

[4] = tested on: E. coli carrying pAmpC13A (mutant ampC, S303R); assay: MIC test, mutant plasmid pAmpC13A; format: cell-based
Experimental: (§5) Serial dilutions were prepared by first determining the volume of drug solution to be added to the first well in each row to achieve the desired concentration of drug in a total volume of 1 ml. The MIC was determined for the following drugs: ampicillin, pipericillin, temocillin, cephalothin, cefuroxime, cefotaxime, ceftazidime, cefepime, imipenem, meropenem, and aztreonam. To the first well in each row 1 ml of the diluted cell suspension was added, and to all remaining wells per row 0.5 ml of the diluted cell suspension was added. For each row, the predetermined volume of a drug solution was added to the first well per row, mixed well, and then 0.5 ml of the mixed solution was transferred to the next well, and so on until the serial dilutions were completed. From the last well in each row, 0.5 ml was removed so that all well contained 0.5 ml of the drug-containing culture. Plates were sealed with BreatheEasy film (Diversified Biotech, Boston, Mass.) and maintained overnight at 37° C. with shaking.
(§6) Plasmids were prepared from those isolates and were transformed into E. coli strain JM109.

[5] = tested on: host cells carrying PAmpC0-307 (AmpC L290 to R); assay: MIC test, single-mutation plasmid PAmpC0-307; format: cell-based, E. coli; conditions: for MIC: PAmpC0-307, T869 to G, L290 to R
Experimental: as §1, §2, §3, §4

[6] = tested on: E. coli carrying pAmpC21B (mutant ampC); assay: MIC test, mutant plasmid pAmpC21B; format: cell-based; conditions: for clinical resistance conferred by pAmpC21B: after two cycles of mutagenesis and selection
Experimental: as §5, §6

[7] = tested on: E. coli JM109 carrying the plasmid vector pACSE without an ampC gene; assay: MIC test, plasmid vector pACSE without an ampC gene; format: cell-based; conditions: pACSE (vector, no ampC)
Experimental: as §1, §2
Plasmids were prepared from those isolates and were transformed into E. coli strain JM109. MICs conferred by each of those plasmids was determined as in Example 5.
as §4

[8] = tested on: host cells carrying PAmpC0-308 (AmpC N295 to S); assay: MIC test, single-mutation plasmid PAmpC0-308; format: cell-based, E. coli; conditions: A644 to G
[9] = tested on: E. coli carrying pAmpC41A (mutant ampC); assay: MIC test, mutant plasmid pAmpC41A; format: cell-based
Experimental: as §5, with “shaking. […]” for “shaking.”
Plasmids were prepared from those isolates and were transformed into E. coli strain JM109. MICs conferred by each of those plasmids was determined as in Example 5. […]

Structure (SMILES) | MIC [1] [µg/mL] | MIC [2] [µg/mL] | resistance conferred by plasmid pAmpC0 [2] | MIC [3] [µg/mL] | clinical resistance conferred by pAmpC13A [4] | MIC [5] [µg/mL] | clinical resistance conferred by pAmpC21B [6] | MIC [7] [µg/mL] | MIC [8] [µg/mL] | change in resistance by A663G (T121S) mutation vs wildtype pAmpC0 [1] | improved resistance conferred by pAmpC13A [4] | change in resistance by T869G (L290R) mutation vs wildtype pAmpC0 [5] | improvement in resistance ([9]; pAmpC41A, first line) [fold] | increase in resistance ([6]; pAmpC21B, second line) [fold] | improvement in resistance conferred by pAmpC41A ([9]; after subsequent rounds of mutagenesis and selection, relative to pAmpC13A)
CC(=O)OCC1=C(C(=O)O)N2C(=O)[C@@H](NC(=O)Cc3cccs3)[C@H]2SC1 [Cephalothin, cephalothin] | 512 | 1020 (≈ 2580 µM) | confers resistance | 1020 | clinical resistance | 512 | clinical resistance | 16 (≈ 40.4 µM) | 512 (≈ 1290 µM) |  |  |  |  |  | 
C[C@@H](O)[C@H]1C(=O)N2C(C(=O)O)=C(S[C@@H]3CN[C@H](C(=O)N(C)C)C3)[C@H](C)[C@H]12 [Meropenem, meropenem] | 0.0156 |  | not | 0.0312 |  | 0.0312 |  | 0.00195 (≈ 0.00509 µM) | 0.0156 (≈ 0.0407 µM) | significantly increase resistance | improved resistance | significantly increase resistance |  |  | 
CO/N=C(\C(=O)N[C@@H]1C(=O)N2C(C(=O)[O-])=C(C[N+]3(C)CCCC3)CS[C@H]12)c1csc(N)n1 [Cefepime, cefepime] | 0.0625 | 0.0625 (≈ 0.13 µM) | not | 1 |  | 0.0625 |  | 0.0312 (≈ 0.065 µM) | 0.0625 (≈ 0.13 µM) |  | improved resistance |  | 128 | 2 | 
C[C@@H](O)[C@H]1C(=O)N2C(C(=O)O)=C(SCCN=CN)C[C@H]12 [Imipenem, imipenem] | 0.125 | 0.25 (≈ 0.835 µM) |  | 0.25 |  | 0.125 |  | 0.25 (≈ 0.835 µM) | 0.125 (≈ 0.418 µM) |  |  |  |  |  | 
CC(C)(O/N=C(\C(=O)N[C@@H]1C(=O)N2C(C(=O)[O-])=C(C[n+]3ccccc3)CS[C@H]12)c1csc(N)n1)C(=O)O [Ceftazidime, ceftazidime] | 2 | 2 (≈ 3.66 µM) | not | 64 | clinical resistance | 1 | clinical resistance | 0.5 (≈ 0.915 µM) | 2 (≈ 3.66 µM) |  | improved resistance |  |  |  | 
CCN1CCN(C(=O)N[C@@H](C(=O)N[C@@H]2C(=O)N3[C@@H]2SC(C)(C)[C@@H]3C(=O)O)c2ccccc2)C(=O)C1=O [Pipericillin, pipericillin] | 16 | 16 (≈ 30.9 µM) | not |  | clinical resistance | 16 | clinical resistance | 4 (≈ 7.73 µM) | 4 (≈ 7.73 µM) |  | improved resistance |  |  |  | slight improvement in resistance
CC1(C)S[C@@H]2[C@H](NC(=O)[C@H](N)c3ccccc3)C(=O)N2[C@H]1C(=O)O [Ampicillin, ampicillin] | 128 | 128 (≈ 366 µM) | confers resistance | > 1020 | clinical resistance | 128 | clinical resistance | 2 (≈ 5.72 µM) | 64 (≈ 183 µM) |  | improved resistance |  |  |  | 
CO/N=C(\C(=O)N[C@@H]1C(=O)N2C(C(=O)O)=C(COC(N)=O)CS[C@H]12)c1ccco1 [Cefuroxime, cefuroxime] | 32 | 64 (≈ 151 µM) | confers resistance | 512 | clinical resistance | 32 | clinical resistance | 16 (≈ 37.7 µM) | 32 (≈ 75.4 µM) |  |  |  |  |  | 
CO[C@@]1(NC(=O)C(C(=O)O)c2ccsc2)C(=O)N2[C@@H](C(=O)O)C(C)(C)S[C@@H]21 (some centres unmarked) [Temocillin, temocillin] | 16 | 16 (≈ 38.6 µM) | not | 32 | clinical resistance | 8 |  | 16 (≈ 38.6 µM) | 8 (≈ 19.3 µM) |  | improved resistance |  |  |  | 
C[C@H]1[C@H](NC(=O)/C(=N\OC(C)(C)C(=O)O)c2csc(N)n2)C(=O)N1S(=O)(=O)O [Aztreonam, aztreonam] | 4 | 4 (≈ 9.19 µM) | not | 16 |  | 4 |  | 0.5 (≈ 1.15 µM) | 4 (≈ 9.19 µM) |  | improved resistance |  |  |  | 
CO/N=C(\C(=O)N[C@@H]1C(=O)N2C(C(=O)O)=C(COC(C)=O)CS[C@H]12)c1csc(N)n1 [Cefotaxime, cefotaxime] | 1 | 1 (≈ 2.2 µM) | not | 8 |  | 0.5 |  | 0.0625 (≈ 0.137 µM) | 0.5 (≈ 1.1 µM) |  | improved resistance |  |  |  | 
